# Values of other authors, collected in US10010502B2, “Device that delivers a sustained low-dose of a myopia-suppressing drug, while preserving pupillary function and accommodation” (AMORPHEX THERAPEUTICS LLC, priority 2015, dated 2018).
# Entries after “also recorded” stand apart in the source; their conditions may differ.
# How the values were obtained:
# myopia progression [1] = test system: myopia progression
# [2] = test system: muscarinic receptors of the pupil and ciliary body
# childhood myopia = settings: 68 myopic children, oral dose of 400 mg
# myopia progression [3] = test system: myopia progression; remark: listed apart in the source
compound,measurement,setting,value
CN1CCc2cccc3c2[C@H]1Cc1ccc(O)c(O)c1-3 [apomorphine],myopia progression in animal models,myopia progression [1],retard myopia progression
CN1CCN(CC(=O)N2c3ccccc3C(=O)Nc3cccnc32)CC1 [pirenzepine],activity at muscarinic receptors of the pupil and ciliary body relative to atropine,[2],less active at the muscarinic receptors of the pupil and ciliary body than atropine
Cn1cnc2[nH]c(=O)[nH]c(=O)c21 [7-methylxanthine],eye elongation and myopia progression,childhood myopia,reduce eye elongation and myopia progression
same,safety / adverse effects,childhood myopia,safe and without side effects; also recorded: no reported adverse effects
N[C@@H](Cc1ccc(O)c(O)c1)C(=O)O [levodopa],myopia progression in animal models,myopia progression [1],retard myopia progression
CN1[C@@H]2CC[C@H]1C[C@@H](OC(=O)C(CO)c1ccccc1)C2 (some centres unmarked) [atropine],glare symptoms,myopia progression [3]; 0.01% drops,some mild glare symptoms
same,"visual acuity, quality of life, reading speed",myopia progression [3]; 0.01% drops,"no decrease in visual acuity, quality of life or reading speed"
same,myopia progression,myopia progression [3]; eye drop concentrations of 0.5% and 1.0%,≤ 0.2 diopters/year
same,increase in pupil size easily tolerated by children,"myopia progression [3]; lower dose atropine drops, normal light conditions",1 mm
same,effect on myopia progression,"myopia progression [3]; lowest dose eye drops studied, 0.01%",less-than-optimal but measureable effect
same,duration of dilation after one drop,myopia progression [3]; one eye drop,several days or even a week or more
